From ChEMBL document CHEMBL1201862, “PubChem BioAssay data set” (2004)
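Grown in 96-well plates, cells were treated for 48 hours with each compound at five concentrations. Insufficient inhibition: endpoint recorded as highest concentration tested. GI50 is the concentration that inhibits growth by half.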 Active and inactive are the calls of the source. No stated cut-off is given here; in the data, active = GI50 up to about 1.1 µM and inactive = higher.

Tests used:
Test in all cases: growth of human tumour cells (NCI), 48 h
[1] = system: HOP-62
[2] = system: UACC-257
[3] = system: A549
[4] = system: HCC 2998
[5] = system: HCT-116
[6] = system: TK-10
[7] = system: HOP-18
[8] = system: NCI-H226
[9] = system: M19-MEL
[10] = system: SF-539
[11] = system: CCRF-CEM
[12] = system: SNB-78
[13] = system: 786-0
[14] = system: UACC-62
[15] = system: SF-295
[16] = system: DLD-1
[17] = system: SF-268
[18] = system: HT-29
[19] = system: HOP-92
[20] = system: DMS-273
[21] = system: RPMI-8226
[22] = system: SN12C
[23] = system: A498
[24] = system: U-251
[25] = system: COLO 205
[26] = system: SK-OV-3
[27] = system: IGROV-1
[28] = system: HCT-15
[29] = system: DMS-114
[30] = system: SW-620
[31] = system: LOX IMVI
[32] = system: KM12
[33] = system: NCI-H522
[34] = system: LXFL 529
[35] = system: EKVX
[36] = system: OVCAR-4
[37] = system: Malme-3M
[38] = system: KM-20L2
[39] = system: OVCAR-3
[40] = system: ACHN
[41] = system: OVCAR-8
[42] = system: SNB-19
[43] = system: MOLT-4
[44] = system: OVCAR-5
[45] = system: CAKI-1
[46] = system: M14
[47] = system: UO-31
[48] = system: NCI-H23
[49] = system: XF498
[50] = system: HL-60
[51] = system: K562
[52] = system: RXF 631
[53] = system: RXF 393
[54] = system: SK-MEL-5
[55] = system: SK-MEL-2
[56] = system: NCI-H460
[57] = system: SK-MEL-28
[58] = system: SNB-75
[59] = system: SR

Measured: GI50

C#Cc1c(C)c(/C=C/C(C)=C/C(=O)OC)n(C)c1C
95.3 µM: [28]
inactive: [1] > 100 µM | [2] > 100 µM | [3] > 100 µM | [4] 59 µM | [5] 65.8 µM | [6] > 100 µM | [7] > 100 µM | [8] > 100 µM | [9] > 100 µM | [10] > 100 µM | [11] 51.9 µM | [12] > 100 µM | [13] > 100 µM | [14] 94.6 µM | [15] > 100 µM | [16] 79.4 µM | [17] 79.3 µM | [18] 58.1 µM | [19] 25 µM | [20] 88.7 µM | [21] 40.3 µM | [22] > 100 µM | [23] > 100 µM | [24] > 100 µM | [25] > 100 µM | [26] > 100 µM | [27] > 100 µM | [29] 36.1 µM | [30] > 100 µM | [31] > 100 µM | [32] > 100 µM | [33] 71.8 µM | [34] 99.8 µM | [35] > 100 µM | [36] 82.2 µM | [37] > 100 µM | [38] 87.7 µM | [39] > 100 µM | [40] 43.7 µM | [41] 71.9 µM | [42] > 100 µM | [43] 23.4 µM | [44] > 100 µM | [45] > 100 µM | [46] > 100 µM | [47] > 100 µM | [48] > 100 µM | [49] 77.3 µM | [50] 12.1 µM | [51] 24.2 µM

N#CCC(=O)N1CCCOCCC1
inactive: [1] > 100 µM | [2] > 100 µM | [52] > 100 µM | [3] > 100 µM | [4] > 100 µM | [5] > 100 µM | [6] > 100 µM | [9] > 100 µM | [10] > 100 µM | [11] > 100 µM | [12] > 100 µM | [13] > 100 µM | [14] > 100 µM | [15] > 100 µM | [16] > 100 µM | [17] > 100 µM | [18] 34.1 µM | [20] > 100 µM | [22] > 100 µM | [23] > 100 µM | [24] > 100 µM | [25] 21.8 µM | [26] > 100 µM | [27] > 100 µM | [29] > 100 µM | [30] 6.73 µM | [31] 44.8 µM | [32] > 100 µM | [34] > 100 µM | [35] > 100 µM | [53] > 100 µM | [36] 38.6 µM | [37] > 100 µM | [54] > 100 µM | [55] > 100 µM | [38] > 100 µM | [40] > 100 µM | [42] > 100 µM | [44] > 100 µM | [45] > 100 µM | [46] > 100 µM | [56] > 100 µM | [47] > 100 µM | [57] > 100 µM | [48] > 100 µM | [50] 58.7 µM | [51] > 100 µM
17.9 µM: [28]
active: [43] 0.46 µM

C[C@]12CCC3[C@@H](CCC45OC4C(=O)CC[C@]35C)C1Cc1cnn(-c3ccc(F)cc3)c1N2 (some centres undefined)
17.5 µM: [28]
inactive: [1] 29.6 µM | [2] 35.9 µM | [3] 65.5 µM | [5] 15.3 µM | [6] > 100 µM | [7] 37 µM | [8] 33.4 µM | [9] 34.3 µM | [11] 21.3 µM | [12] 25.6 µM | [13] 18.6 µM | [14] 19.7 µM | [15] 39 µM | [17] 23.6 µM | [18] 17.3 µM | [20] 18.8 µM | [21] 19.5 µM | [22] 23.3 µM | [24] 28.4 µM | [25] 40.5 µM | [26] 58.1 µM | [29] 19.4 µM | [30] 31.8 µM | [31] 16.7 µM | [32] 25.1 µM | [33] 15 µM | [34] 32.8 µM | [35] 49.9 µM | [53] 27.9 µM | [36] > 10 µM | [37] > 100 µM | [54] 31.5 µM | [55] 29.9 µM | [38] 22.6 µM | [40] 33.6 µM | [58] 38.6 µM | [41] 29.8 µM | [42] 27.2 µM | [43] 22.9 µM | [46] 48.6 µM | [56] 28.6 µM | [47] 87.9 µM | [57] 26.6 µM | [48] 22.2 µM | [49] 31.8 µM | [50] 17.6 µM | [51] 20.9 µM | [59] 27.2 µM
